Measurements: the supplement of paper PMC10627819

Legend:
B. subtilis 168 [1] = test: Bliss interaction score (quartile over a dose matrix) (fitness difference); higher = more antagonism (negative = synergy)
Procedure, shortened: (§1)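 OD595 was read at entry into stationary phase and expressed relative to the robust mean of the no-drug wells on the same plate, capped at 1. The resulting ratio is the fitness value. The Bliss score, observed fitness minus product-based expected fitness with single-drug fitness inferred from combinations, is summarised by quartiles over technical, biological and donor/recipient replicates.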

S. aureus Newman [2] = test: as above
Procedure, shortened: as §1

S. aureus DSM 20231 [3] = test: as above
Procedure, shortened: as §1

S. pneumoniae D39V [4] = test: as above
Procedure, shortened: as §1

B. subtilis 168 [5] = test: fitness (endpoint OD595 vs no drug) (fraction); higher = more growth
Procedure, shortened: (§2)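 At 37 °C, bacteria in TSB, LB Lennox or CY were grown in 384-well plates from a starting OD595 of 0.01. OD595 was measured every 30 min for 14 h, with the first reading used as background. Fitness is the optical density at the switch to stationary phase as a fraction of the robust mean of no-drug control wells, capped at 1.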

S. aureus Newman [6] = test: as above
Procedure, shortened: as §2

S. aureus DSM 20231 [7] = test: as above
Procedure, shortened: as §2

S. pneumoniae D39V [8] = test: as above
Procedure, shortened: as §2
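For Bliss interaction score (quartile over a dose matrix) in this document: first quartile when negative (synergy) and third quartile when positive (antagonism).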

COc1cccc2c1C(=O)c1c(O)c3c(c(O)c1C2=O)C[C@@](O)(C(=O)CO)C[C@@H]3O[C@H]1C[C@H](N)[C@H](O)[C@H](C)O1 [Doxorubicin] + CC1=C\[C@@H](O)CC(=O)Cc2nc(co2)C(=O)N2CCC=C2C(=O)O[C@H](C(C)C)[C@H](C)/C=C/C(=O)NC\C=C\1 [Virginiamycin M1]
Details	Bliss interaction score
B. subtilis 168 [1]	0.0827
S. aureus DSM 20231 [3]	-0.0467
S. aureus Newman [2]	-0.0655
S. pneumoniae D39V [4]	0.0614

fitness
Details	first compound 0.25 µg/mL	first compound 0.5 µg/mL	first compound 0.625 µg/mL	first compound 1 µg/mL	first compound 1.25 µg/mL	first compound 2.5 µg/mL
B. subtilis 168 [5], partner 0.0625 µg/mL	–	–	0.975	–	0.901	0.653
B. subtilis 168 [5], partner 0.125 µg/mL	–	–	0.939	–	0.904	0.639
B. subtilis 168 [5], partner 0.25 µg/mL	–	–	0.96	–	0.911	0.7
S. aureus DSM 20231 [7], partner 0.0625 µg/mL	–	–	0.874	–	0.872	0.779
S. aureus DSM 20231 [7], partner 0.125 µg/mL	–	–	0.944	–	0.903	0.82
S. aureus DSM 20231 [7], partner 0.25 µg/mL	–	–	0.873	–	0.862	0.802
S. aureus Newman [6], partner 0.0625 µg/mL	–	–	0.76	–	0.766	0.768
S. aureus Newman [6], partner 0.125 µg/mL	–	–	0.795	–	0.802	0.756
S. aureus Newman [6], partner 0.25 µg/mL	–	–	0.788	–	0.784	0.746
S. pneumoniae D39V [8], partner 0.5 µg/mL	0.964	0.961	–	0.969	–	–
S. pneumoniae D39V [8], partner 1 µg/mL	0.997	≥ 1	–	0.951	–	–
S. pneumoniae D39V [8], partner 2 µg/mL	0.92	0.9	–	0.898	–	–

fitness, one replicate
Details	first compound 0.25 µg/mL	first compound 0.5 µg/mL	first compound 0.625 µg/mL	first compound 1 µg/mL	first compound 1.25 µg/mL	first compound 2.5 µg/mL
S. aureus DSM 20231 [7], partner 0.5 µg/mL	–	–	0.873	–	0.803	0.706
S. aureus DSM 20231 [7], partner 1 µg/mL	–	–	0.769	–	0.708	0.761
S. aureus Newman [6], partner 0.5 µg/mL	–	–	0.81	–	0.809	0.703
S. aureus Newman [6], partner 1 µg/mL	–	–	0.924	–	0.871	0.793
S. aureus Newman [6], partner 2 µg/mL	–	–	0.837	–	0.696	0.664
S. pneumoniae D39V [8], partner 0.15 µg/mL	0.86	0.865	–	0.911	–	–
S. pneumoniae D39V [8], partner 0.3 µg/mL	0.823	0.836	–	0.888	–	–

Cc1ncc([N+](=O)[O-])n1CCO [Metronidazole] + CN(N=O)C(=O)N[C@@H](C=O)[C@@H](O)[C@H](O)[C@H](O)CO [Streptozotocin]
Details	Bliss interaction score
B. subtilis 168 [1]	-0.0488
S. aureus DSM 20231 [3]	-0.0474
S. aureus Newman [2]	0.0626
S. pneumoniae D39V [4]	0.0474

fitness, one replicate
Details	partner 0.15 µg/mL	partner 0.3 µg/mL	partner 0.6 µg/mL	partner 1.2 µg/mL	partner 2.4 µg/mL	partner 4.8 µg/mL
B. subtilis 168 [5], first compound 0.625 µg/mL	≥ 1	≥ 1	≥ 1	–	–	–
B. subtilis 168 [5], first compound 1.25 µg/mL	0.91	≥ 1	≥ 1	–	–	–
B. subtilis 168 [5], first compound 2.5 µg/mL	0.956	0.941	0.976	–	–	–
S. aureus Newman [6], first compound 0.781 µg/mL	0.907	0.717	0.523	–	–	–
S. aureus Newman [6], first compound 1.562 µg/mL	0.875	0.722	0.519	–	–	–
S. aureus Newman [6], first compound 3.124 µg/mL	0.796	0.709	0.505	–	–	–
S. pneumoniae D39V [8], first compound 1.25 µg/mL	–	–	–	≥ 1	≥ 1	≥ 1
S. pneumoniae D39V [8], first compound 2.5 µg/mL	–	–	–	0.98	≥ 1	≥ 1
S. pneumoniae D39V [8], first compound 5 µg/mL	–	–	–	0.959	≥ 1	≥ 1

fitness
Details	first compound 0.625 µg/mL	first compound 1.073 µg/mL	first compound 1.25 µg/mL	first compound 2.145 µg/mL	first compound 2.5 µg/mL	first compound 4.29 µg/mL
S. aureus DSM 20231 [7], partner 0.15 µg/mL	0.876	–	0.888	–	0.905	–
S. aureus DSM 20231 [7], partner 0.3 µg/mL	0.791	–	0.752	–	0.831	–
S. aureus DSM 20231 [7], partner 0.6 µg/mL	0.683	–	0.701	–	0.734	–
S. aureus Newman [6], partner 0.15 µg/mL	0.838	–	0.833	–	0.816	–
S. aureus Newman [6], partner 0.3 µg/mL	0.725	–	0.742	–	0.731	–
S. aureus Newman [6], partner 0.6 µg/mL	0.579	–	0.568	–	0.591	–
S. pneumoniae D39V [8], partner 1.2 µg/mL	–	0.942	–	0.934	–	0.96
S. pneumoniae D39V [8], partner 2.4 µg/mL	–	0.961	–	0.904	–	0.743
S. pneumoniae D39V [8], partner 4.8 µg/mL	–	0.966	–	0.946	–	0.979
